Biological target: T1, human DP2 receptor (Homo sapiens, UniProt Q9Y5Y4)
T1 construct: expressed in transfected cells; membrane preparation
T1 sequence (Q9Y5Y4 1-395): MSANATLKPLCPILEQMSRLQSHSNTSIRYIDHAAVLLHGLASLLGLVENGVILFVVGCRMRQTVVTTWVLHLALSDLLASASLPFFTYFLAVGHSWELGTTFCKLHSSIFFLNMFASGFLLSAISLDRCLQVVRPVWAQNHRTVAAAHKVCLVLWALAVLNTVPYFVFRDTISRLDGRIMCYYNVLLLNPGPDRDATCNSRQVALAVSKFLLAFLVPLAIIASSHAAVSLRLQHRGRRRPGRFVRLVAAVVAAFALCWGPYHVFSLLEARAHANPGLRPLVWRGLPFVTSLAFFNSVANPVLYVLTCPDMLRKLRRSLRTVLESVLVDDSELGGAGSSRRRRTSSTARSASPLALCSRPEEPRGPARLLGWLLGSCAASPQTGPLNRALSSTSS
Experiment: DP2/CRTH2 radioligand binding assay using [3H]PGD2
Details: hDP2 (CRTH2) binding assay; membranes of HEK293 cells expressing recombinant human DP2, 1 nM [3H]PGD2
Description: The ability of a compound to bind to the human DP2 receptor is assessed via a radioligand binding assay using [^3H]PGD2. HEK293 cells stably expressing recombinant human DP2 are resuspended in 10 mM Hepes, 7.4 containing 1 mM DTT, lysed and centrifuged at 75,000×g to pellet the membranes. The membranes are resuspended in 10 mM Hepes, 7.4 containing 1 mM DTT and 10% glycerol to approximately 5 mg protein/ml. Membranes (2-10 μg protein/well) are incubated in 96-well plates with 1 nM [^3H]PGD2 and test compound in Assay Buffer (50 mM Hepes, 10 mM MnCl2, 1 mM EDTA, plus or minus 0.2% human serum albumin, pH 7.4) for 60 minutes at room temperature. The reactions are terminated by rapid filtration through Whatman GF/C glass fibre filter plates. The filter plates were pre-soaked in 0.33% polythylenimine for 30 minutes at room temperature then washed in Wash Buffer (50 mM Hepes, 0.5 M NaCl pH 7.4) prior to harvesting. After harvesting, the filter plates are washed 3 times with 1 ml cold Wash Buffer then dried. Scintillant is then added to the plates and the radioactivity retained on the filters is determined on a Packard TopCount (Perkin Elmer). Specific binding is determined as total radioactive binding minus non-specific binding in the presence of 10 μM PGD2. IC50s were determined using GraphPad prism analysis of drug titration curves.

| SMILES | IC50 [nM] |
| --- | --- |
| O=C(O)Cc1cncc(-c2ccc(C(F)(F)F)cc2CN(CCc2ccccc2)C(=O)C2CC2)c1 [Compound 1-26, (5-{2-[(N-Cyclopropanecarbonyl-N-phenethyl-amino)-methyl]-4-trifluoromethyl-phenyl}-pyridin-3-yl)-acetic acid] | < 300 |
| CCN(Cc1cc(C(F)(F)F)ccc1-c1cnn(CC(=O)O)c1)C(=O)C1CC1 [Compound 3-1, (4-{2-[(N-Cyclopropanecarbonyl-N-ethyl-amino)-methyl]-4-trifluoromethyl-phenyl}-pyrazol-1-yl)-acetic acid] | < 300 |
| CCN(Cc1cc(C(F)(F)F)ccc1-c1cc(CC(=O)O)cnc1OCc1ccccc1)C(=O)C1CC1 [Compound 1-68, (6-Benzyloxy-5-{2-[(N-cyclopropanecarbonyl-N-ethyl-amino)-methyl]-4-trifluoromethyl-phenyl}-pyridin-3-yl)-acetic acid] | < 300 |
| CCN(Cc1cc(-n2cccn2)ccc1-c1cc(CC(=O)O)cnc1OC)C(=O)C1CC1 [Compound 1-46, (5-{2-[(N-Cyclopropanecarbonyl-N-ethyl-amino)-methyl]-4-pyrazol-1-yl-phenyl}-6-methoxy-pyridin-3-yl)-acetic acid] | < 300 |
| O=C(O)Cc1cncc(-c2ccc(C(F)(F)F)cc2CN(Cc2ccc(C(F)(F)F)nc2)C(=O)C2CC2)c1 [Compound 1-59, [5-(2-{[N-Cyclopropanecarbonyl-N-(6-trifluoromethyl-pyridin-3-ylmethyl)-amino]-methyl}-4-trifluoromethyl-phenyl)-pyridin-3-yl]-acetic acid] | < 300 |
| CC(=O)NCc1ccc(-c2cncc(CC(=O)O)c2)c(CN(Cc2ccccc2)C(=O)C2CC2)c1 [Compound 1-9, (5-{4-(Acetylamino-methyl)-2-[(N-benzyl-N-cyclopropanecarbonyl-amino)-methyl]-phenyl}-pyridin-3-yl)-acetic acid] | > 1000 |
| CCN(Cc1cc(C(F)(F)F)ccc1-c1cccc(CC(=O)O)n1)C(=O)OC(C)(C)C [Compound 1-38, (6-{2-[(N-tert-Butoxycarbonyl-N-ethyl-amino)-methyl]-4-trifluoromethyl-phenyl}-pyridin-2-yl)-acetic acid] | > 1000 |
| CCN(Cc1cc(F)ccc1-c1cncc(C(C)C(=O)O)c1)C(=O)OCc1ccccc1 (stereo not drawn) [Compound 1-11, 2-(5-{2-[(N-Benzyloxycarbonyl-N-ethyl-amino)-methyl]-4fluoro-phenyl}-pyridin-3-yl)-propionic acid] | < 300 |
| O=C(O)Cc1cncc(-c2ccc(C(=O)N3CCCC3)cc2CN(Cc2ccccc2)C(=O)C2CC2)c1 [Compound 1-8, {5-[2-[(N-Benzyl-N-cyclopropanecarbonyl-amino)-methyl]-4-(pyrrolidine-1-carbonyl)-phenyl]-pyridin-3-yl}-acetic acid] | 300 to 1000 |
| CC(=O)N(Cc1ccc(C(F)(F)F)nc1)Cc1cc(C(F)(F)F)ccc1-c1cncc(CC(=O)O)c1 [Compound 1-62, [5-(2-{[N-Acetyl-N-(6-trifluoromethyl-pyridin-3-ylmethyl)-amino]-methyl}-4-trifluoromethyl-phenyl)-pyridin-3-yl]-acetic acid] | < 300 |
| CCN(Cc1cc(C(F)(F)F)ccc1-c1cc(CC(=O)O)ccn1)C(=O)c1ccccc1 [Compound 1-37, (2-{2-[(N-Benzoyl-N-ethyl-amino)-methyl]-4-trifluoromethyl-phenyl}-pyridin-4-yl)-acetic acid] | > 1000 |
| COCC(=O)N(Cc1cnc(C)cn1)Cc1cc(C(F)(F)F)ccc1-c1cncc(CC(=O)O)c1 [Compound 1-60, [5-(2-{[N-(2-Methoxy-acetyl)-N-(5-methyl-pyrazin-2-ylmethyl)-amino]-methyl}-4-trifluoromethyl-phenyl)-pyridin-3-yl]-acetic acid] | 300 to 1000 |
| CCN(Cc1cc(C(F)(F)F)ccc1-c1c(C)nn(CC(=O)O)c1C)C(=O)C1CC1 [Compound 3-2, (4-{2-[(N-Cyclopropanecarbonyl-N-ethyl-amino)-methyl]-4-trifluoromethyl-phenyl}-3,5-dimethyl-pyrazol-1-yl)-acetic acid] | > 1000 |

Now from value to compound:

| IC50 [nM] | SMILES |
| --- | --- |
| < 300 | Cc1cnc(CN(Cc2cc(C(F)(F)F)ccc2-c2cncc(CC(=O)O)c2)C(=O)C2CC2)cn1 [Compound 1-58, [5-(2-{[N-Cyclopropanecarbonyl-N-(5-methyl-pyrazin-2-ylmethyl)-amino]-methyl}-4-trifluoromethyl-phenyl)-pyridin-3-yl]-acetic acid] |
| < 300 | CCN(Cc1cc(C(F)(F)F)ccc1-c1cc(C(F)(F)F)cc(CC(=O)O)n1)C(=O)C1CCC1 [Compound 1-41, (6-{2-[(N-Cyclobutanecarbonyl-N-ethyl-amino)-methyl]-4-trifluoromethyl-phenyl}-4-trifluoromethyl-pyridin-2-yl)-acetic acid] |
| < 300 | CC(=O)N(Cc1cnc(C)cn1)Cc1cc(C(F)(F)F)ccc1-c1cncc(CC(=O)O)c1 [Compound 1-61, [5-(2-{[N-Acetyl-N-(5-methyl-pyrazin-2-ylmethyl)-amino]-methyl}-4-trifluoromethyl-phenyl)-pyridin-3-yl]-acetic acid] |
| < 300 | CC(=O)N(Cc1ccccn1)Cc1cc(C(F)(F)F)ccc1-c1cncc(CC(=O)O)c1 [Compound 1-53, (5-{2-[(N-Acetyl-N-pyridin-2-ylmethyl-amino)-methyl]-4-trifluoromethyl-phenyl}-pyridin-3-yl)-acetic acid] |
| < 300 | O=C(O)Cc1cncc(-c2ccc(C(F)(F)F)cc2CN(Cc2ccccn2)C(=O)C2CC2)c1 [Compound 1-52, (5-{2-[(N-Cyclopropanecarbonyl-N-pyridin-2-ylmethyl-amino)-methyl]-4-trifluoromethyl-phenyl}-pyridin-3-yl)-acetic acid] |
| 300 to 1000 | O=C(O)Cc1cncc(-c2ccc(C(F)(F)F)cc2CN(CCc2cccnc2)C(=O)C2CC2)c1 [Compound 1-65, [5-(2-{[N-Cyclopropanecarbonyl-N-(2-pyridin-3-yl-ethyl)-amino]-methyl}-4-trifluoromethyl-phenyl)-pyridin-3-yl]-acetic acid] |
| < 300 | CCN(Cc1cc(C(F)(F)F)ccc1-c1cncc(CC(=O)O)c1)S(=O)(=O)c1cccc2c(N(C)C)cccc12 [Compound 1-77, [5-(2-{[N-(5-Dimethylamino-naphthalene-1-sulfonyl)-N-ethyl-amino]-methyl}-4-trifluoromethyl-phenyl)-pyridin-3-yl]-acetic acid] |
| > 1000 | O=C(O)Cc1cncc(-c2ccc(C(F)(F)F)cc2CN(CCc2ccncc2)C(=O)C2CC2)c1 [Compound 1-66, [5-(2-{[N-Cyclopropanecarbonyl-N-(2-pyridin-4-yl-ethyl)-amino]-methyl}-4-trifluoromethyl-phenyl)-pyridin-3-yl]-acetic acid] |
| > 1000 | CCNCc1cc(C(F)(F)F)ccc1-c1cncc(CC(=O)O)c1 [Compound 1-78, [5-(2-Ethylaminomethyl-4-trifluoromethyl-phenyl)-pyridin-3-yl]-acetic acid] |
| > 1000 | CCN(Cc1cc(C(F)(F)F)ccc1-c1cc(CC(=O)O)cnc1-c1ccccc1)C(=O)C1CC1 [Compound 1-76, (5-{2-[(N-Cyclopropanecarbonyl-N-ethyl-amino)-methyl]-4-trifluoromethyl-phenyl}-6-phenyl-pyridin-3-yl)-acetic acid] |
| > 1000 | CCN(Cc1cc(C(F)(F)F)ccc1-c1cc(CC(=O)O)ccn1)C(=O)C1CCC1 [Compound 1-36, (2-{2-[(N-Cyclobutanecarbonyl-N-ethyl-amino)-methyl]-4-trifluoromethyl-phenyl}-pyridin-4-yl)-acetic acid] |

From patent US20110312974A1, “HETEROARYL ANTAGONISTS OF PROSTAGLANDIN D2 RECEPTORS” (AMIRA PHARMACEUTICALS, INC., priority 2008, published 2011)
